{"source": "patent US20170240592A1", "about": "“GADD45BETA/MKK7 INHIBITOR FOR THE TREATMENT OF A RESISTANT HAEMATOLOGICAL MALIGNANCY” (IMPERIAL INNOVATIONS LIMITED, priority 2014, published 2017)", "key": {"[1]": {"tested_on": "mouse LN cells and splenocytes", "experiment": "trypan blue exclusion assay, survival of mouse LN cells and splenocytes", "assay_type": "cell-based", "settings": "DTP3 100 μM, PS-1145 20 μM, 144 hr", "method": "(§1) Values express the percentage of live cells present in the treated cultures relative to the live cells present in the respective untreated cultures and denote means±SD ([WM]; n=3). UT, untreated. […] Values express the percentage of inhibition of Gadd45β binding to MKK7 relative to the binding measured in the absence of peptide. […] Co-immunoprecipitations (IP) were performed using an anti-FLAG antibody (a-FLAG); western blots (WB) were developed using an anti-HA or an anti-MKK7 antibody, as shown.\n[…] Cell viability was measured by using trypan blue exclusion or [^3H]thymidine incorporation assays performed in the manner described above (Mauro et al., 2011; Griffiths and Sundaram, 2011; Arnold et al., 2008), as indicated."}, "Gadd45β binding to MKK7": {"biological_target": "T1, Gadd45β binding to MKK7 (Homo sapiens, UniProt O14733)", "T1 construct": "Full-length human (h)MKK7 was expressed as a protein fused to an N-terminal GST tag (GST-MKK7); made in house", "T1 sequence (O14733 1-419)": "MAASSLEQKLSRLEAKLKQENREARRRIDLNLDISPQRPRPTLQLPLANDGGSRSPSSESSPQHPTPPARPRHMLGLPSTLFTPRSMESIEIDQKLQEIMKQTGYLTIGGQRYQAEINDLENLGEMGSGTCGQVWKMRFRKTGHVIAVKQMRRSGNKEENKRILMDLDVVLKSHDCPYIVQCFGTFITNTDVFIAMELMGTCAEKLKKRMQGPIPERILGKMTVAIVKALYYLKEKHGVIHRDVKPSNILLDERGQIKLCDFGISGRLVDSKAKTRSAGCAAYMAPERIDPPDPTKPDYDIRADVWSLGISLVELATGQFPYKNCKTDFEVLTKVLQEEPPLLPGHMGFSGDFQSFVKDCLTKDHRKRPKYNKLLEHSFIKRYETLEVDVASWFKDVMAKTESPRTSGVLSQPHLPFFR", "experiment": "ELISA Gadd45β/MKK7 competition assay", "method": "as §1\nProteins were purified as described in Tornatore et al., 2008. Individual peptides were synthesised as reported in Sandomenico et al., 2012. […] Peptide identity and purity were determined using liquid chromatography-mass spectrometry (LC-MS). […]\nRecombinant proteins were purified as described previously (Tornatore et al., 2008). Briefly, full-length human (h)GADD45β was expressed as a protein fused to a poly-histidine (His6) tag and purified by affinity chromatography using His-Trap columns (GE Healthcare). […] Full-length human (h)MKK7 was expressed as a protein fused to an N-terminal GST tag (GST-MKK7), purified using GST-Trap as above, and then used for ELISA analyses. […] The kinase domain (KD) of hMKK7 (amino acids 101-405) was expressed as a protein fused to an N-terminal His6 tag in E. coli (BL21[DE3] strain) using the pETDuet-1 vector (Novagen). […]"}, "[2]": {"tested_on": "drug-resistant multiple myeloma cell lines", "experiment": "[3H]thymidine incorporation assay, sensitive and drug-resistant multiple myeloma cell lines", "assay_type": "cell-based, human", "settings": "6-day treatment; MM1.R, AMO-1a, MM1/R10R, U266/R10R", "description": "Matching pairs of sensitive (parental) and drug-resistant multiple myeloma cell lines were as follows: MM1.S (parental) and MM1.R (dexamethasone-resistant); AMO-1 (parental) and AMO-1a (bortezomib-resistant); MM1.S (parental) and MM1/R10R (lenalidomide-resistant); U266 (parental) and U266/R10R (lenalidomide-resistant). […] For clarity purposes, the same data for the parental MM1.S MM multiple myeloma cell line are shown as control for the dexamethasone-resistant (MM1.R) MM multiple myeloma cell line and the lenalidomide-resistant (MM1/R10R) MM multiple myeloma cell line."}, "thermodynamic solubility": {"experiment": "thermodynamic solubility", "assay_type": "physicochemical", "settings": "PBS pH 7.4, at 37° C. for 14 days", "procedure": "In vitro pharmacokinetic assays were performed according to established, in-house protocols and included: plasma stability (human), thermodynamic solubility (PBS pH 7.4, at 37° C. for 14 days), microsomal stability (human), plasma protein binding (PPB; mouse and human), and distribution coefficient (Log D). In vivo pharmacokinetic analyses were also performed at Cyprotex according to established, in-house protocols. Briefly, the peptides were dissolved in PBS and administered by single intravenous injection to CD1 male mice at the dose of 10 mg/kg (25-30 g of total body weight; n=3 mice per time point per compound). Blood samples were collected in heparinized tubes at up to 7 time points after this injection (i.e. 0.08, 0.25, 0.5, 1, 2, 4 and 8 hr), and the plasma concentrations of the test peptide were determined at each time point by LC-MS/MS, using a five-point standard curve covering a peptide concentration range from 3 to 3,000 ng/mL. Standard curves were prepared using blank plasma matrices and treated in the same manner as the test samples. […] Values were calculated from the data of the peptide plasma concentration versus time curves using a non-compartmental model analysis, as described elsewhere (Groulx, 2006; Landaw and Di Stefano 3rd, 1982). […]"}, "U266 cells": {"tested_on": "U266 cells", "experiment": "[3H]thymidine incorporation assay, DTP3 and bortezomib as single agents or in combination, U266", "settings": "FA 0.5; DTP3 3 nM for 6 days, bortezomib last 48 hr; Chou-Talalay", "procedure": "(§2) Treatments with DTP3 were for 6 days; bortezomib was added to the cell cultures 48 hr prior to the measurement of cell viability. For the combination treatment, DTP3 was used at the concentrations of 3 nM in U266 cells and of 10 nM in KMS-12 cells, whereas bortezomib was used at increasing concentrations, as shown.\nViability data from the experiment shown in FIG. 12 were converted into values representing the fraction of cells affected (FA) equaling 0.5 in the drug-treated cultures compared with untreated cultures, and the interaction of DTP3 with bortezomib was analysed according to the Chou-Talalay method (Chou, 2006). Also shown are the drug concentrations giving the FA value of 0.5 and the description of the CI. […]\n(§3) [^3H]Thymidine incorporation assays were performed using standard protocols (Griffiths and Sundaram, 2011). […] At 24, 72 or 144 hr, cells were incubated for an additional 16 hr with 0.037 MBq/well of [^3H]thymidine (Amersham), and then harvested onto glass fibre filter mats using a 96-well plate automated Tomtec cell harvester (Receptor Technologies) and analysed by liquid scintillation spectroscopy with a LKB Wallac Trilux Microbeta 3 b-counter (PerkinElmer). Values were expressed as the percentage of the counts per minute (cpm) measured in the treated cultures relative to the cpm measured in the respective untreated cultures. […]"}, "KMS-12 cells": {"tested_on": "KMS-12 cells", "experiment": "[3H]thymidine incorporation assay, DTP3 and bortezomib as single agents or in combination, KMS-12", "procedure": "as §2\nViability data from the experiment shown in FIG. 12 were converted into values representing the fraction of cells affected (FA) equaling 0.5 in the drug-treated cultures compared with untreated cultures, and the interaction of DTP3 with bortezomib was analysed according to the Chou-Talalay method (Chou, 2006). Also shown are the drug concentrations giving the FA value of 0.5 and the description of the CI. Based on the Chou-Talalay equation (Chou, 2006), synergy is present when the CI is less than 1.0 (where values between 0.3 and 0.7 denote synergism, and values between 0.1 and 0.3 denote strong synergism); the combination is additive when CI equals 1.0, and antagonistic when it is more than 1.0 (Chou, 2006).\nas §3\nThe activities of DTP3 and bortezomib in the U266 and KMS-12 myeloma cell lines, both as single agents and in combination, were determined using [^3H]thymidine incorporation assays, performed as described above in “Cell Proliferation, Cell Death, and Apoptosis Assays”. The IC50 values of bortezomib as single agent were determined at 48 hr using 9 concentrations of drug, ranging from 0.1 to 1,000 nM."}}}
{"compound": "CC(=O)N[C@H](Cc1ccc(O)cc1)C(=O)N[C@H](CCCNC(=N)N)C(=O)N[C@H](Cc1ccccc1)C(N)=O", "note": "[DTP3, Acetyl-Tyr-Arg-Phe-NH2]", "values": [{"measurement": "toxicity to normal cells compared with PS-1145", "setting": "[1]", "value": "far lesser toxicity to normal cells than the IKKβ inhibitor PS-1145"}, {"measurement": "Gadd45β/MKK7 inhibitor activity", "setting": "Gadd45β binding to MKK7", "value": "sub-nM"}, {"measurement": "stability in vitro", "setting": "Gadd45β binding to MKK7; before and after 48-hr pre-incubation with human serum at 37° C.", "value": "high stability in vitro"}, {"measurement": "efficacy in multiple myeloma cell lines resistant to dexamethasone, bortezomib and lenalidomide", "setting": "[2]", "value": "retained full therapeutic efficacy"}, {"measurement": "aqueous solubility", "setting": "thermodynamic solubility", "value": "high aqueous solubility"}, {"measurement": "combination index (CI) with bortezomib", "setting": "U266 cells", "value": 0.21}, {"measurement": "combination index (CI) with bortezomib", "setting": "KMS-12 cells; FA 0.5, DTP3 10 nM for 6 days, bortezomib last 48 hr, Chou-Talalay", "value": 0.56}, {"measurement": "description of the CI", "setting": "KMS-12 cells; combination with bortezomib", "value": "synergism (values between 0.3 and 0.7 denote synergism)"}]}
